Assay results: PubChem BioAssay AID2305 (GlaxoSmithKline (GSK), 2010)

Tested on: P. falciparum 3D7 growth, pLDH absorbance
Test: P. falciparum 3D7 growth inhibition, dose response, strain 3D7 (AID 2305)

Structure (SMILES)	IC50
CC(C)CCN1CCCN(Cc2cccc(NC(=O)c3ccc(Cl)c(Cl)c3)c2)CC1	1020 nM
Cc1ccccc1CNc1noc(-c2c(-c3ccccc3)noc2C)n1	900 nM
FC(F)(F)c1cccc(Nc2nc(-n3ccnc3)nc(-n3ccnc3)n2)c1	720 nM
N#Cc1ccc(N2CCN(Cc3ccc(-c4cccc(-c5nc6ccccc6[nH]5)c4)cc3)CC2)nc1	910 nM
O=C(COc1ccc(C(=O)c2ccccc2)cc1)Nc1nccs1	890 nM
O=C(/C=C/c1ccc(Cl)cc1)NCCCCCN1CCC(C(=O)Nc2ccc(Cl)c(Cl)c2)CC1	770 nM
c1ccc(CSC2=NNC(c3ccccn3)S2)cc1 (stereo not drawn)	1480 nM
Cc1nc(Nc2ccc(F)cc2)nc(N2CCc3ccccc3C2C)c1CO (stereo not drawn)	740 nM
CN=C(Nc1c(Cl)cccc1Cl)N(C)C	820 nM
COc1ccc(O)c(C(=O)c2cc(C(=O)NC3CCCCC3)c(=O)n(C3CCCCC3)c2)c1	660 nM
N=C(N)c1ccc(OCc2cccc(COc3ccc(C(=N)N)cc3I)c2)c(I)c1	340 nM
NC(=O)c1ccc(NCC(=O)Nc2cccc(-c3cccc(-c4nc5ccc(C(F)(F)F)cc5[nH]4)c3)c2)cc1	270 nM
Cc1cccc(Nc2nccc(Nc3cccc(C(=O)NCCN4CCOCC4)c3)n2)c1	1420 nM
O=C(/C=C/c1ccc(Cl)c(Cl)c1)NCCCCCN1CCC(C(=O)Nc2ccc(F)c(Cl)c2)CC1	650 nM
Cc1ccc(C(C#N)c2ccc3c(C(F)(F)F)cc(C(F)(F)F)nc3n2)cc1 (stereo not drawn)	700 nM
COc1cccc(N(CCCN2C(=O)c3cccc4cccc(c34)C2=O)C(=O)c2ccccc2C)c1	790 nM
CN1CCC(N(Cc2ccc(N3CCN(Cc4c[nH]c5ccc(Cl)cc45)CC3)nc2)C2CC2)CC1	1000 nM
O=C(NCCCCCN1CCC(c2c[nH]c3ccccc23)C1)Nc1ccc(Cl)c(Cl)c1 (stereo not drawn)	810 nM
C[C@H](Cc1ccc(OCCCCCCOc2ccccc2)cc1)NC[C@H](O)c1cccc(Cl)c1	70 nM
COc1ccc2nccc([C@@H](O)CN3CCC(NC(=O)C(c4ccsc4)N4CCN(c5ccccc5)CC4)CC3)c2c1 (stereo partly drawn)	440 nM
Cc1ccccc1C1CCN(C2CCC(NC(=O)/C=C/c3cc(F)ccc3C(F)(F)F)CC2)CC1 (stereo not drawn)	950 nM
COc1ccc(NC(=O)[C@H](CC(C)C)Nc2cc(C)nc(Nc3ccccc3)n2)cc1	870 nM
c1ccc(CN2CCC(Nc3ccc(-c4cn[nH]c4-c4ccccn4)nc3)CC2)cc1	800 nM
CCCNC(=O)Nc1cc2cc(-c3cccc(CN4CCCCC4)c3)ccc2n2c(C)nnc12	1110 nM

Structure (SMILES)	IC50
Cc1[nH]c(CNCCCNc2cc(=O)c3ccccc3[nH]2)c(Br)c1Br	1040 nM
Cn1nc(-c2cccc(CN[C@@H]3CCc4ccc(O)cc43)c2)c2cnc(NC3CCCC3)nc21	740 nM
Cc1c(Cc2ccccc2)c(=O)oc2c(C)c3c(cc12)CN(CC(C)c1ccccc1)CO3 (stereo not drawn)	450 nM
Oc1ccc2[nH]c(-c3cccs3)nc2c1CN1CCC(N2CCCC2)CC1	640 nM
CCN(CC)CCCC(C)Nc1cc(C=Cc2ccc([N+](=O)[O-])cc2)nc2ccc(OC)cc12 (stereo not drawn)	570 nM
O=C(Nc1ccc(-c2oc(C(=O)NCCc3cccc(Cl)c3)cc2-c2ccncc2)cc1)Nc1cccc(Cl)c1	720 nM
O=C(Nc1cccc(-c2nn3ccccc3c2-c2ccnc(Nc3cccc(N4CCCC4=O)c3)n2)c1)c1cc(F)ccc1F	210 nM
CC(=O)Nc1nc(C(=O)Nc2cccc(-c3ccc(-c4nc5c(C)cccc5[nH]4)cc3)c2)cs1	230 nM
OCCN1CCN(Cc2ccc(-c3cccc(-c4nc5ccccc5[nH]4)c3)cc2)CC1	750 nM
CN1CCN(CCCCNc2c3ccccc3nc3ccccc23)CC1	700 nM
CCCCCCNC(=O)C1Cc2c([nH]c3ccc(C)cc23)C2(CCN(CCc3ccccc3)CC2)N1 (stereo not drawn)	1270 nM
CC(C)Cc1ccc(N2CCN(CCCCNC(=O)c3ccc(NC(=O)c4cc(C(F)(F)F)cc(C(F)(F)F)c4)cc3)CC2)cc1	180 nM
c1ccc(CCNCc2cccc(-c3ccccc3CNCc3ccc4c(c3)OCO4)c2)nc1	970 nM
Cc1ccc2nc3c(cc(C(=O)NCCc4ccccc4)c(=N)n3CCCOC(C)C)c(=O)n2c1	890 nM
Nc1ccnc2ccc(OCCCCCCc3ccccc3)cc12	520 nM
COc1ccc2ncc(C#N)c(CCN3CCC(NCc4ccc5c(c4)NC(=O)CO5)CC3)c2c1	590 nM
COc1ccc2cc(CNCCCCCCNCc3ccc4cc(OC)ccc4c3)ccc2c1	620 nM
COCCNCc1ccc(-c2ccc(CN(C(=O)NC3CCCCC3)C3CCN(Cc4ccccc4)CC3)cc2)cc1	960 nM
N#Cc1cccc(NC(=O)Nc2cccc(-c3cccc(-c4nc5ccc(C(F)(F)F)cc5[nH]4)c3)c2)c1	220 nM
O=C(/C=C/c1ccc(Cl)c(Cl)c1)NCCCCCN1CCCN(C(=S)Nc2ccc(Cl)c(Cl)c2)CC1	870 nM
CCN(CC)CCOc1ccc(NC(=O)c2oc3ccccc3c2C=Cc2ccccc2)cc1	220 nM
CCc1ccc(CN2CCC(CNC(=O)c3cc(-c4cccc(Cl)c4)cs3)C2)cc1 (stereo not drawn)	1110 nM
CCc1c(C)c(C#N)c2nc3ccccc3n2c1NCc1ccco1	700 nM
CCOc1cc(Br)c(C(C)NC(=O)c2cccc(OC)c2)cc1OCC (stereo not drawn)	170 nM
